Patent US20240246941A1, “SUBSTITUTED 4-(3-AMINOPROP-1-YL)AMINOQUINOLINE ANALOGS AS MODULATORS OF MELANOMA-ASSOCIATED ANTIGEN 11 UBIQUITIN LIGASE” (ST. JUDE CHILDREN'S RESEARCH HOSPITAL, INC., priority 2020, published 2024)
Entries after “also recorded” stand apart in the source; their conditions may differ.

Columns and labels:
[1] = tested on: PCF11 protein levels in HEK293FT cells; test: PCF11 degradation by MAGE-A11, immunoblotting in HEK293FT cells; assay type: cell-based; conditions: 24 hours
Method: Cell culture and stable cell lines. HEK293FT, HeLa and DAOY cells were grown in DMEM (Gibco) supplemented with 10% (v/v) FBS (Hyclone), 2 mM L-glutamine, 100 units/ml penicillin, 100 units/ml streptomycin, and […] amphotericin B (Invitrogen). HEK293FT and DAOY cells were transfected with either HA-FLAG-vector, FLAG-MAGE-A11 wild-type or SBC mutants using Effectene (QIAGEN) according to the manufacturer's protocol in 6 cm^2 plates. After 48 hours, cells were selected with 1 μg/ml puromycin (Sigma) over 2 weeks.
Western Blotting and Antibodies. For western blotting, samples in SDS sample buffer were resolved on SDS-PAGE gels and then transferred to nitrocellulose membranes prior to blocking in TBST with 5% (w/v) milk powder or 3% (w/v) bovine serum albumin and probing with primary and secondary antibodies (GE Healthcare). Primary antibodies were: anti-Myc (Sigma, #C3956), anti-FLAG (Sigma, #F3165), anti-HUWE1 (Novus Biologicals, #NB 100-652), anti-PCF11 (Bethyl Laboratories, #A303-706A), anti-GAPDH (Cell Signaling Technology, #2118), anti-TRIM28 (Abcam, #ab22553), anti-AMPKa1 (Cell Signaling Technology, #2795) and anti-MMS19 (Proteintech, #16015-1-AP). Protein signal was visualized after addition of ECL detection reagent (GE Healthcare) according to manufacturer's instructions.

[2] = tested on: HEK293FT cells stably expressing FLAG-vector or FLAG-MAGE-A11; test: Cell viability alamarBlue assay, HEK293FT cells; assay type: cell-based; conditions: MAGE-A11 expressing HEK293FT cells versus vector control, 24 hours, listed as SJ521054
Method: (§1) Cell viability Assay. To assess cell viability after SJ521054 treatment, 1×10^4 cells/ml were treated with SJ521054 (0-40 μM) and incubated for 24 hours prior to changing the media and adding alamarBlue (Thermo Fisher Scientific) and incubating for 4 hours at 37° C. Plates were read by measuring the fluorescence with excitation wavelength at 540 nm and emission wavelength at 590 nm on an Enspire plate reader.

[3] = tested on: MAGE-A11-knockout DAOY cells or those reconstituted with MAGE-A11; test: Cell viability alamarBlue assay, DAOY cells; assay type: cell-based; conditions: MAGE-A11 expressing DAOY cells versus MAGE-A11-negative cells, 24 hours, listed as SJ521054
Method: as §1

[4] = target: interaction between GST-MAGEA11 MHD and FAM-PCF11_4 peptide (MAGE-A11:PCF11) (Homo sapiens (Human), UniProt P43364); test: TR-FRET dose response competition assay for disruption of MAGE-A11:PCF11 binding; conditions: read-out: IC50 by TR-FRET for disrupting MAGE-A11:PCF11 interaction
In short: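 Competition TR-FRET at room temperature in 50 mM Tris pH 7.5, 20 mM MgCl2, 0.1 mg/ml BSA, 1 mM DTT: final 5 nM GST-MAGEA11 MHD, 5 nM Tb-anti-GST, 200 nM FAM-PCF11_4, 90 min. Ratio 520/490 nm converted to % inhibition; IC50 from sigmoidal fit.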

Sequence of interaction between GST-MAGEA11 MHD and FAM-PCF11_4 peptide (MAGE-A11:PCF11) (P43364 218-429): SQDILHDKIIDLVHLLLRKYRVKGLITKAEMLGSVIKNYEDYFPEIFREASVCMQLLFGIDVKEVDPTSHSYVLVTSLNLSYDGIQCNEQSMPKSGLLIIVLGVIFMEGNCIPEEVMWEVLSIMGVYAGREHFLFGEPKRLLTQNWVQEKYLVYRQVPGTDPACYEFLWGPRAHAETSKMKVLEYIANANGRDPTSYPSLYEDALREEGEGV

## FC(F)(F)c1ccc2c(NCCCNCc3ccc4[nH]ccc4c3)ccnc2c1 [SJ000521054-02, N^1-((1H-Indol-5-yl)methyl)-N^3-(7-(trifluoromethyl)quinolin-4-yl)propane-1,3-diamine]
[1]; MAGE-A11 expressing HEK293FT cells, listed as SJ521054
  PCF11 protein levels / PCF11 degradation by MAGE-A11: blocks PCF11 degradation by MAGE-A11; also recorded: stabilized PCF11 protein levels
[1]; vector control HEK293FT cells
  PCF11 protein levels: no effect
[2]
  cell viability: decreased the viability; also recorded: reduces viability of MAGE-A11 expressing HEK293FT cells
[3]
  cell viability: reduces viability of MAGE-A11 expressing DAOY cancer cells; also recorded: decreased the viability
[4]
  IC50: 0.4 µM
